The results in this text go back to ChEMBL document CHEMBL1121503, “Estrogen receptor based imaging agents. 2. Synthesis and receptor binding affinity of side-chain halogenated hexestrol derivatives” (J Med Chem, 1980).

In the experiment the target is Estrogen receptor (Ovis aries) (UniProt P49885+Q9TU15).
In turn, `C/C(=C(/C)c1ccc(O)cc1)c1ccc(O)cc1` gave an RAC of 20. `Oc1ccc(/C(=C(/c2ccccc2)C(F)(F)F)C(F)(F)F)cc1`: the RAC is 10.

Molecule `CCC(c1ccc(O)cc1)C(CCI)c1ccc(O)cc1` (stereo not given) came in with an RAC of 60. The result for `CCC(c1ccc(O)cc1)C(CCCl)c1ccc(O)cc1` (stereo not given) reads 113; that for `CC[C@H](c1ccc(O)cc1)[C@@H](CC)c1ccc(O)cc1`, 300; that for `Oc1ccc(C(=C(C(F)(F)F)C(F)(F)F)c2ccccc2)cc1`, 21. The result for `Oc1ccc(C(=C2CCCCC2)c2ccc(O)cc2)cc1` reads 32. The result for `CCC(c1ccc(O)cc1)C(CCF)c1ccc(O)cc1` (stereo not given) reads 129. The molecule `Oc1ccc(/C(=C(/c2ccc(O)cc2)C(F)(F)F)C(F)(F)F)cc1` registered an RAC of 48.

`CCC(c1ccc(O)cc1)C(CCBr)c1ccc(O)cc1` (stereo not given) showed an RAC of 71.
